Data reported in US7235258B1, “Sustained-release formulations for treating CNS-mediated disorders” (NPS Pharmaceuticals, Inc., priority 1999, dated 2007).
Where two headings read alike, the source gives them in different places.

How the values were obtained:
[1] = Ascending single oral dose pharmacokinetic study of isovaleramide (oral solution) in healthy subjects; format: in vivo, human; settings: for half-life / Cmax / CL/F: human; for CL/F: arithmetic mean
Procedure: (§1) Isovaleramide (NPS 1776) was orally administered in a double-blind, placebo-controlled, ascending single dose study conducted in two groups of healthy young male Caucasian subjects and one group of healthy young female Caucasian subjects to investigate the safety, tolerability, pharmacodynamics and pharmacokinetics of the drug. Various amounts of the drug were dissolved in 250 mL of a flavored soft drink (powdered soft drink diluted in mineral water) and administered as an oral solution.
Isovaleramide administered orally in the absence of a sustained-release formulation was rapidly absorbed and rapidly eliminated in human subjects (Table 1). Systemic exposure to the drug increased with increasing oral doses from 100 to 1600 mg in male subjects.

[2] = Safety and tolerability in the ascending single oral dose study; format: in vivo, human
Procedure: as §1
The most common adverse events were polyuria and headache. There were no dose-related trends in the incidence or severity of adverse events, or any difference in the incidence or severity of adverse events reported. Similar results were obtained in a 1200 mg dose level female group administered the drug for gender comparison.

[3] = Water solubility of the drug (statement); format: physicochemical

time at which blood level falls below the effective concentration ([1]; 1200 mg dose, assumed effective target concentration about 10 μg/mL): about 5 hours | half-life ([1]; female, plasma, females, oral, 1200 mg, read-out: t½ (converted)): 1.89 h | Cmax ([1]; blood, oral, 1200 mg, read-out: initial maximum blood concentration (Cmax)): ~27000 ng/mL | half-life ([1]; plasma, humans, oral, no sustained-release formulation, doses 100 to 1600 mg, read-out: half-life (converted)): ~2.5 h | CL/F ([1]; plasma, male humans, oral, 100 mg): 3.83 mL/min/kg | Cmax ([1]; plasma, male humans, oral, 100 mg, geometric mean, read-out: Cmax): 1510 ng/mL | half-life ([1]; plasma, male humans, oral, 100 mg, harmonic mean, read-out: t1/2 (converted)): 2.7 h | CL/F ([1]; plasma, male humans, oral, 200 mg): 3.08 mL/min/kg | Cmax ([1]; plasma, male humans, oral, 200 mg, geometric mean, read-out: Cmax): 3320 ng/mL | half-life ([1]; plasma, male humans, oral, 200 mg, harmonic mean, read-out: t1/2 (converted)): 2.61 h | CL/F ([1]; plasma, male humans, oral, 400 mg): 3.13 mL/min/kg | Cmax ([1]; plasma, male humans, oral, 400 mg, geometric mean, read-out: Cmax): 6840 ng/mL | half-life ([1]; plasma, male humans, oral, 400 mg, harmonic mean, read-out: t1/2 (converted)): 2.5 h | CL/F ([1]; plasma, male humans, oral, 800 mg): 2.73 mL/min/kg | Cmax ([1]; plasma, male humans, oral, 800 mg, geometric mean, read-out: Cmax): 16400 ng/mL | half-life ([1]; plasma, male humans, oral, 800 mg, harmonic mean, read-out: t1/2 (converted)): 2.35 h | CL/F ([1]; plasma, male humans, oral, 1200 mg): 2.47 mL/min/kg | Cmax ([1]; plasma, male humans, oral, 1200 mg, geometric mean, read-out: Cmax): 27900 ng/mL | half-life ([1]; plasma, male humans, oral, 1200 mg, harmonic mean, read-out: t1/2 (converted)): 2.43 h | CL/F ([1]; plasma, male humans, oral, 1600 mg): 2.17 mL/min/kg | Cmax ([1]; plasma, male humans, oral, 1600 mg, geometric mean, read-out: Cmax): 39300 ng/mL | half-life ([1]; plasma, male humans, oral, 1600 mg, harmonic mean, read-out: t1/2 (converted)): 2.65 h | time to maximum drug concentration ([1]; humans, oral, all doses): less than one hour | time to maximum drug concentration, typical ([1]; humans, oral, all doses): about 30 minutes | increase in Cmax and AUC relative to increase in dose level ([1]; male subjects, oral, 100 to 1600 mg): slightly greater than proportional | change in drug concentration in the blood over a 12-hour period ([1]; single dose, for a 2.5-hour half-life): about 10 fold | water solubility [3]: very water soluble
Structure (SMILES): CC(C)CC(N)=O [Isovaleramide]
changes in vital signs, 12-lead ECG, clinical laboratory assessments or physical examination ([2]; all dose levels): no clinically significant drug-or dose-related changes | tolerability ([2]; oral 100 to 1600 mg, healthy male subjects): well tolerated | severity of drug-related adverse events ([2]; oral 100 to 1600 mg, few events, most common polyuria and headache): all were mild in severity
